Values after ≈ are worked out from the molar mass of the structure shown. Read-outs that look alike come from different tables or passages of the source.
What was measured:
acetylcholinesterase = acetylcholinesterase (Homo sapiens, UniProt P22303); test: biochemical; details: Tris-HCl pH 8.0, 25 °C, 405 nm; read-out: AChE IC50 (converted)
butyrylcholinesterase = butyrylcholinesterase (Homo sapiens, UniProt P06276); test: biochemical; details: Tris-HCl pH 8.0, 25 °C, 405 nm; read-out: BChE IC50 (converted)
butyrylcholinesterase, sequence (P06276 29-602): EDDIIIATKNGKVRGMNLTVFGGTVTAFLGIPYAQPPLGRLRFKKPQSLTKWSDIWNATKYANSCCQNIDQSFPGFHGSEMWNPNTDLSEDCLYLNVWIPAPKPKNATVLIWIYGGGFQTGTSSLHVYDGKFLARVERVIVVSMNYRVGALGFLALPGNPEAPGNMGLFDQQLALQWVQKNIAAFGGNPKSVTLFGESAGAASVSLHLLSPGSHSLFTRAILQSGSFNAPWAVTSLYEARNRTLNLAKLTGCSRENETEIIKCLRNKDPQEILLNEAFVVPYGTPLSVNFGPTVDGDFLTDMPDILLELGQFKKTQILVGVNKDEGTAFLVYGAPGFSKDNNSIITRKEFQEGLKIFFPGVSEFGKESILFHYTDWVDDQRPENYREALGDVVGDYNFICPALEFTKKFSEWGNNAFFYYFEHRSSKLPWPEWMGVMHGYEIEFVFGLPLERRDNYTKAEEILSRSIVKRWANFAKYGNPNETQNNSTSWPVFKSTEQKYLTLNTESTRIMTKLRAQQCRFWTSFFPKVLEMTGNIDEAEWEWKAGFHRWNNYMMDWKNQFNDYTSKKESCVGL

α-glucosidase = test: α-Glucosidase inhibition; assay type: biochemical; details: PNPG, pH 6.8, 37 °C, 400 nm
Protocol: It was incubated at 37 °C for 15 min. Similarly, an enzyme-free blank was prepared. The reaction was stopped when sodium carbonate (50 μL, 0.2 M) was added.

[1] = DPPH radical scavenging activity; details: 0.1 mM DPPH, 50 min dark, 517 nm
[2] = Copper ions reducing activity (CUPRAC); details: Trolox equivalents; 30 min dark, room temperature, 450 nm
[3] = Ferric reducing antioxidant power (FRAP) assay; details: Trolox equivalents; compounds 2 mg/mL, 30 °C 30 min, 595 nm
[4] = tested on: Escherichia coli ATCC 25922; test: MIC, microdilution, E. coli; assay type: cell-based; details: Escherichia coli, ATCC25922; Gram (-); Mueller-Hinton broth, 18-24 h, 36 °C; read-out: MIC Ec
[5] = tested on: Yersinia pseudotuberculosis ATCC911; test: microbe, parasite or virus in culture; assay type: cell-based; details: Yersinia pseudotuberculosis, ATCC911, read-out: MIC Yp
[6] = tested on: Pseudomonas aeruginosa ATCC27853; test: MIC, microdilution, P. aeruginosa; assay type: cell-based; details: Pseudomonas aeruginosa, ATCC27853; Gram (-); Mueller-Hinton broth, 18-24 h, 36 °C; read-out: MIC Pa
[7] = tested on: Staphylococcus aureus ATCC25923; test: MIC, microdilution, S. aureus; assay type: cell-based; details: Staphylococcus aureus, ATCC25923; Gram (+); Mueller-Hinton broth, 18-24 h, 36 °C; read-out: MIC Sa
Bacillus cereus Roma709 = test: MIC, microdilution, B. cereus; assay type: cell-based; details: Bacillus cereus
[8] = tested on: Mycobacterium smegmatis ATCC607; test: MIC, microdilution, M. smegmatis; assay type: cell-based; details: for MIC: Mycolicibacterium smegmatis, ATCC607, 72 h
[9] = tested on: Candida albicans ATCC60193; test: MIC, microdilution, C. albicans; assay type: cell-based; details: Candida albicans, ATCC60193; fungus; YEPD broth, 48 h, 36 °C; read-out: MIC Ca
[10] = Tub., BHI broth, 36 °C, read-out: MIC Ms

acetylcholinesterase, sequence (P22303 32-614, species assumed): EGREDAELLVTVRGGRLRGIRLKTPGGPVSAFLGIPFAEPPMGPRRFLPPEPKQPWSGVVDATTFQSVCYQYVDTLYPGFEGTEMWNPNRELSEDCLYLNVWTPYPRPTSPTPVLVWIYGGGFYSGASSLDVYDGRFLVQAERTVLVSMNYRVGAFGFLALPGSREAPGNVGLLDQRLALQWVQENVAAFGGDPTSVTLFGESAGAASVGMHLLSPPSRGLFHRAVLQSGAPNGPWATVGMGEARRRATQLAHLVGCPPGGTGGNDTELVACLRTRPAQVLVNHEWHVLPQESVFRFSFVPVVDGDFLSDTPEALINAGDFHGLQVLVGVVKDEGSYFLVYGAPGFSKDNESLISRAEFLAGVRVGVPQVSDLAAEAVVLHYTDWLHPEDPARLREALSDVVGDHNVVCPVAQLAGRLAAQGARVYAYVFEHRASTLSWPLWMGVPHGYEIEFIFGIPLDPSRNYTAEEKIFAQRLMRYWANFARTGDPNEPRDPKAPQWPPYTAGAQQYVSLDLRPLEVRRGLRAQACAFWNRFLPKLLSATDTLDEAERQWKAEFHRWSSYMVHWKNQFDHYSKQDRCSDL

SMILES	IC50 (acetylcholinesterase)	IC50 (butyrylcholinesterase)	α-Glucosidase IC50 (α-glucosidase)	DPPH radical scavenging capacity (SC50) [1]	CUPRAC, copper reducing antioxidant power [2]	FRAP, the iron reducing antioxidant power [3]	MIC [4]	MIC [5]	MIC [6]	MIC [7]	MIC (Bacillus cereus Roma709; ROMA709, Gram (+), Mueller-Hinton broth, 18-24 h, 36 °C, read-out: MIC Bc)	MIC [8, 10]	MIC Ms ([8]; Tub., BHI broth, 72 h, 36 °C)	MIC [9]	MIC (Bacillus cereus Roma709; ROMA709, read-out: MIC Bc)	MIC ([8]; read-out: MIC Ms, Tub., BHI broth, 36 °C)
O=C(c1cc(OC2O[C@H](CO)[C@@H](O)[C@H](O)[C@H]2O)cc(OC2O[C@H](CO)[C@@H](O)[C@H](O)[C@H]2O)c1)C(O)c1ccccc1 (stereo partly drawn) [Compound 17, 2-Hydroxy-1-(3,5-Di-O-β -D-glucopyranosylphenyl)-2-phenylethanone]	> 1760 µM	> 1760 µM	193.40 µg/mL	8.22 ± 1.08 mg/mL	287.40 ± 9.81 μg/mL trolox/gram DW	2647.92 ± 31.92 μg/mL trolox/gram DW										
O=C(C(=O)c1cc(O)cc(O)c1)c1ccccc1 [Compound 10, 1-(3,5-Dihydroxyphenyl)-2-phenylethane-1,2-dione]	161 µM	> 4130 µM	100.08 µg/mL	52.10 ± 0.4 mg/mL	455.00 ± 10.1 μg/mL trolox/gram DW	1830 ± 44.8 μg/mL trolox/gram DW	17 µg/mL (≈ 70.2 µM)	65 µg/mL (≈ 268 µM)	32 µg/mL (≈ 132 µM)	65 µg/mL (≈ 268 µM)	17 µg/mL (≈ 70.2 µM)	9 to 18 µg/mL (≈ 37.2 to 74.3 µM)	17 µg/mL (≈ 70.2 µM)	17 µg/mL (≈ 70.2 µM)		
O=C(c1ccc(OC2O[C@H](CO)[C@@H](O)[C@H](O)[C@H]2O)cc1)C(O)c1ccccc1 (stereo partly drawn) [Compound 16, 2-Hydroxy-1-(4-O-β -D-glucopyranosylphenyl)-2-phenylethanone]	399 µM	484 µM	>1000 µg/mL	44.75 ± 3.04 mg/mL	73.54 ± 17.36 μg/mL trolox/gram DW	1956.25 ± 48.13 μg/mL trolox/gram DW										
Cc1cc(C(C)(C)C)c(O)c(C(C)(C)C)c1 [BHT, di-t-butylhydroxytoluene, reference compound]				6.47 ± 0.12 mg/mL												
OC(Cn1cncn1)(Cn1cncn1)c1ccc(F)cc1F [Flu., Fluconazole, reference compound]														< 8 µg/mL		
O=C(c1cccc(O)c1)C(O)c1ccccc1 (centres unmarked) [Compound 1, 2-Hydroxy-1-(3-hydroxyphenyl)-2-phenylethanone]	> 4380 µM	1890 µM	58.16 µg/mL	15.21 ± 2.1 mg/mL	738.33 ± 12.5 μg/mL trolox/gram DW	1238 ± 34.7 μg/mL trolox/gram DW	330 µg/mL (≈ 1450 µM)	1320 µg/mL (≈ 5780 µM)				165 µg/mL (≈ 723 µM)		330 µg/mL (≈ 1450 µM)	1320 µg/mL (≈ 5780 µM)	
O=C(c1ccc(OC2O[C@H](CO)[C@@H](O)[C@H](O)[C@H]2O)cc1)C(O)c1cccc(OC2O[C@H](CO)[C@@H](O)[C@H](O)[C@H]2O)c1 (stereo partly drawn) [Compound 19, 2-Hydroxy-1-(4-O-β -D-glucopyranosylphenyl)-2-(3-O-β -D-glucopyranosyl-phenyl)ethanone]	18.5 µM	> 1760 µM	124.94 µg/mL	8.86 ± 0.37 mg/mL	421.74 ± 24.39 μg/mL trolox/gram DW	2612.50 ± 37.04 μg/mL trolox/gram DW										
O=C(C(=O)c1cc(OC2O[C@H](CO)[C@@H](O)[C@H](O)[C@H]2O)cc(OC2O[C@H](CO)[C@@H](O)[C@H](O)[C@H]2O)c1)c1ccccc1 (stereo partly drawn) [Compound 23, 1-(3,5-Di-O-β -D-glucopyranosylphenyl)-2-phenylethane-1,2-dione]	124 µM	> 1770 µM	>1000 µg/mL	17.74 ± 0.35 mg/mL	273.67 ± 27.23 μg/mL trolox/gram DW	2267.50 ± 24.14 μg/mL trolox/gram DW										
O=C(c1cc(OC2O[C@H](CO)[C@@H](O)[C@H](O)[C@H]2O)cc(OC2O[C@H](CO)[C@@H](O)[C@H](O)[C@H]2O)c1)C(O)c1cccc(OC2O[C@H](CO)[C@@H](O)[C@H](O)[C@H]2O)c1 (stereo partly drawn) [Compound 20, 2-Hydroxy-1-(3,5-di-O-β -D-glucopyranosylphenyl)-2-(3-O-β -D-glucopyranosylphenyl)ethanone]	> 1340 µM	254 µM	48.25 µg/mL	7.78 ± 0.12 mg/mL	775.58±12.34 μg/mL trolox/gram DW	2918.75±36.14 μg/mL trolox/gram DW										
O=C(c1cccc(OC2O[C@H](CO)[C@@H](O)[C@H](O)[C@H]2O)c1)C(O)c1ccccc1 (stereo partly drawn) [Compound 15, 2-Hydroxy-1-(3-O-β -D-glucopyranosylphenyl)-2-phenylethanone]	30.7 µM	> 2560 µM	>1000 µg/mL		141.74 ±28.35 μg/mL trolox/gram DW	2311.04 ± 31.21 μg/mL trolox/gram DW								25 µg/mL (≈ 64 µM)		
[H]/N=C(/N)N[C@H]1[C@H](O)[C@@H](O)[C@H](O[C@@H]2O[C@@H](C)[C@](O)(C=O)[C@H]2O[C@@H]2O[C@@H](CO)[C@H](O)[C@@H](O)[C@@H]2NC)[C@@H](N/C(N)=N\[H])[C@@H]1O [Strep., Streptomycin, reference compound]												4 µg/mL (≈ 6.88 µM)				
O=C(C(=O)c1cccc(OC2O[C@H](CO)[C@@H](O)[C@H](O)[C@H]2O)c1)c1cccc(O)c1 (stereo partly drawn) [Compound 24, 1-(3-O-β -D-Glucopyranosylphenyl)-2-(3-hydroxyphenyl)ethane-1,2-dione]	697 µM	526 µM	58.90 µg/mL	25.40 ± 0.19 mg/mL	251.46 ± 43.08 μg/mL trolox/gram DW	2401.25 ± 56.34 μg/mL trolox/gram DW										15 µg/mL (≈ 37.1 µM)
